We go through seven molecules from patent publication US8003660B2, “Modulators of muscarinic receptors” (Vertex Pharmaceuticals Incorporated, priority 2006, dated 2011).

Common to all, as to format: cell-based
For one experiment, the target named is T1, M4 muscarinic receptor (Homo sapiens, UniProt P08173).
T1 construct: expressed in transfected cells; host or cells: CHO (M4-CHO)
T1 sequence (P08173 1-479): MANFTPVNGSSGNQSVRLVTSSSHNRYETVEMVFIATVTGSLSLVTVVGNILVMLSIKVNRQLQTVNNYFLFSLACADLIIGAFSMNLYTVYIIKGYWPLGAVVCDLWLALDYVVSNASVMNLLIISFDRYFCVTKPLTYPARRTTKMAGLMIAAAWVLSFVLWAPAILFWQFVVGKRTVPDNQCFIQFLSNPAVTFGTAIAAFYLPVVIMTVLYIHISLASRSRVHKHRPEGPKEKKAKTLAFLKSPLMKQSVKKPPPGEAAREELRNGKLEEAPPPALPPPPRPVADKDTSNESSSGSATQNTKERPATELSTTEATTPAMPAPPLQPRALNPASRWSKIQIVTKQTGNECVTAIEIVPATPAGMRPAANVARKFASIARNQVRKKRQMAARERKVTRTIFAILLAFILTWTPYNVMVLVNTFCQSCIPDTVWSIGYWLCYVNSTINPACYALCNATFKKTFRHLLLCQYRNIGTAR
As to the kind of experiment: Functional mobilization of intracellular calcium (FLIPR) in CHO cells expressing M4. The settings on record: for M4 Activity: CHO cells expressing M4, FLIPR calcium assay; for Emax: CHO, 100% efficacy = maximum response obtained with the Carbachol control. The essentials:
(§1)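 Calcium flux is read on FLIPR over 60 sec at 488/540 nm in muscarinic-receptor CHO lines. Antagonist mode adds carbachol at EC80 after 15 min compound preincubation or with simultaneous co-application. Agonist mode adds compound alone. Cells carry Fluo-3 or Calcium 3 dye in probenecid-containing pH 7.4 buffer, 0.5% DMSO final.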
On the technique in general: Calcium assays in cells follow changes in intracellular calcium, usually with a dye or a luminescent sensor.

Another experiment has as its target T2, M1 muscarinic receptor (Homo sapiens, UniProt P11229).
T2 construct: expressed in transfected cells; host or cells: CHO (M1-CHO)
T2 sequence (P11229 1-460): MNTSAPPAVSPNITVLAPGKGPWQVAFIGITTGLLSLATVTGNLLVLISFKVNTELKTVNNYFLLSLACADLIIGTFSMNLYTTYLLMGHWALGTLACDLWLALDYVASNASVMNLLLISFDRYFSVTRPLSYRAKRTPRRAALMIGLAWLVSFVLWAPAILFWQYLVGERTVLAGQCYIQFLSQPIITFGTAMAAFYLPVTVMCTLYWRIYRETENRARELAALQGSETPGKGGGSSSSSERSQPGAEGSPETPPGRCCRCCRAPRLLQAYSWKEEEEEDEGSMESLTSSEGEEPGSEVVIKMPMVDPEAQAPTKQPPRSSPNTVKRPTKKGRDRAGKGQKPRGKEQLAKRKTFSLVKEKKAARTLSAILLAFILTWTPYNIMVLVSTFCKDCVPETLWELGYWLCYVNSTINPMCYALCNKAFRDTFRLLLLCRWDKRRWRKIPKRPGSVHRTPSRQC
The experiment in a line: Functional mobilization of intracellular calcium (FLIPR) in CHO cells expressing M1. The settings on record: for M1 Activity: CHO cells expressing M1, FLIPR calcium assay; for Emax: CHO, 100% efficacy = maximum response obtained with the Carbachol control. The essentials:
as §1

The target in the next experiment is T3, M2 muscarinic receptor (Homo sapiens, UniProt P08172).
T3 construct: expressed in transfected cells; host or cells: CHO (M2-CHO)
T3 sequence (P08172 1-466): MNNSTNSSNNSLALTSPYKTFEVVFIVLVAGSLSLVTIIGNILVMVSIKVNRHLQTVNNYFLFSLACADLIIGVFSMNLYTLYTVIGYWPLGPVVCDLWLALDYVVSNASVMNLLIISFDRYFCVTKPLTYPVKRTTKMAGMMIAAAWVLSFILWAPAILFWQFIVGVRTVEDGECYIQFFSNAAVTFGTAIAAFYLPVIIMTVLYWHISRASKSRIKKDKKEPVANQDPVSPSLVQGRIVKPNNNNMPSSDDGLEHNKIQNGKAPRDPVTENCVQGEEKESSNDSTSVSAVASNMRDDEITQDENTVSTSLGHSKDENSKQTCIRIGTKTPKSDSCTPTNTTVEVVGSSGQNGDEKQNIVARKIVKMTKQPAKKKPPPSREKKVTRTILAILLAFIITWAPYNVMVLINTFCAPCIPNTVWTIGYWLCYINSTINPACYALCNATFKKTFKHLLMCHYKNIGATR
The experiment in a line: Functional mobilization of intracellular calcium (FLIPR) in CHO cells expressing M2. Particulars: for M2 Activity: CHO cells expressing M2, FLIPR calcium assay; for Emax: CHO, 100% efficacy = maximum response obtained with the Carbachol control. The essentials: as §1

Another experiment has as its target T4, M3 muscarinic receptor (Homo sapiens, UniProt P20309).
T4 construct: expressed in transfected cells; host or cells: CHO (M3-CHO)
The experiment in a line: Functional mobilization of intracellular calcium (FLIPR) in CHO cells expressing M3. The settings on record: for M3 Activity: CHO cells expressing M3, FLIPR calcium assay; for Emax: CHO, 100% efficacy = maximum response obtained with the Carbachol control. In a few lines:
as §1

T4 sequence (P20309 whole entry): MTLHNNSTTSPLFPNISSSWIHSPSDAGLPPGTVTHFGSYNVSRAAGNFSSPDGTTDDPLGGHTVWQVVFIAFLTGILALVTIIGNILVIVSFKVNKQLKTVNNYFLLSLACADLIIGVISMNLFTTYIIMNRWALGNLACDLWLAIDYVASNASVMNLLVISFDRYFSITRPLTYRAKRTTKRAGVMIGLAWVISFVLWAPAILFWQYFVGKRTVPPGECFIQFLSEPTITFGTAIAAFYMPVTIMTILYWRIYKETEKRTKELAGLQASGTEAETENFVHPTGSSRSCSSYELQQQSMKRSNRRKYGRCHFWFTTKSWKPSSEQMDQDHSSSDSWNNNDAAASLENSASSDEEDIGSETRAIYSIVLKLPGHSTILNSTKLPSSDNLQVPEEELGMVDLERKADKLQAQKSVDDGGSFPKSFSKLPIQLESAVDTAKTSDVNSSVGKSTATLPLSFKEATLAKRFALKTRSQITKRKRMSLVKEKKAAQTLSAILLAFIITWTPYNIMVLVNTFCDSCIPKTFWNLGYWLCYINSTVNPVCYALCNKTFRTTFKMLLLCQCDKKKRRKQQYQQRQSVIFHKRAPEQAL

Take `CN1CCC2(CCCc3ccccc32)CC1` [compound 232]: on M4 muscarinic receptor, the “M4 Activity” value is “+ (activity was measured to be greater than 5.0 μM)” and the maximal response (Emax) was less than 25%. At M1 muscarinic receptor, the “M1 Activity” value was “+ (activity was measured to be greater than 5.0 μM)” and the Emax is less than 25%. On M2 muscarinic receptor, the “M2 Activity” value is on record as “+ (activity was measured to be greater than 5.0 μM)” and the Emax was less than 25%. Moreover, at M3 muscarinic receptor, the “M3 Activity” value was “+ (activity was measured to be greater than 5.0 μM)” and the maximum response (Emax) was less than 25%.

Take `COC(=O)CN1CCC2(CC1)C[C@H](NC(C)=O)c1ccccc12` [compound 233]: at M4 muscarinic receptor, the “M4 Activity” value is listed as “+ (activity was measured to be greater than 5.0 μM)” and the maximal response (Emax) was less than 25%. For the same molecule, at M1 muscarinic receptor, the “M1 Activity” value is “+ (activity was measured to be greater than 5.0 μM)” and the maximum response (Emax) is 25 to 100%. In addition, on M2 muscarinic receptor, the “M2 Activity” value is reported as “+ (activity was measured to be greater than 5.0 μM)” and the Emax was less than 25%. At M3 muscarinic receptor, the “M3 Activity” value is “+ (activity was measured to be greater than 5.0 μM)” and the Emax was less than 25%.

In the case of `CCOc1ccc(CN2CCC3(CC[C@H](NC(C)=O)c4ccccc43)CC2)cc1` [compound 234], at M4 muscarinic receptor, the “M4 Activity” value is reported as “++ (activity was measured to be from 2.0 μM to 5.0 μM)” and the Emax lay within 25 to 100%. Moreover, at M1 muscarinic receptor, the “M1 Activity” value was “++ (activity was measured to be from 2.0 μM to 5.0 μM)” and the maximal effect (Emax) was 25 to 100%. Further, on M2 muscarinic receptor, the “M2 Activity” value is “+ (activity was measured to be greater than 5.0 μM)” and the maximum response (Emax) is less than 25%. Moreover, on M3 muscarinic receptor, the “M3 Activity” value is given as “+ (activity was measured to be greater than 5.0 μM)” and the Emax was less than 25%.

As to `CC(=O)N[C@H]1CC2(CCN(CC(=O)NCC(C)C)CC2)c2ccccc21` [compound 235], at M4 muscarinic receptor, the “M4 Activity” value is “+ (activity was measured to be greater than 5.0 μM)” and the maximum response (Emax) is less than 25%. Further, at M1 muscarinic receptor, the “M1 Activity” value is reported as “+ (activity was measured to be greater than 5.0 μM)” and the Emax was less than 25%. Also, at M2 muscarinic receptor, the “M2 Activity” value was “+ (activity was measured to be greater than 5.0 μM)” and the Emax is less than 25%. On M3 muscarinic receptor, the “M3 Activity” value was “+ (activity was measured to be greater than 5.0 μM)” and the Emax was less than 25%.

On to `CC(=O)N[C@H]1CC2(CCN(C(C)CC(C)C)CC2)c2ccccc21` (some centres unmarked) [compound 236], for which, at M4 muscarinic receptor, the “M4 Activity” value is “+ (activity was measured to be greater than 5.0 μM)” and the Emax was less than 25%. In addition, at M1 muscarinic receptor, the “M1 Activity” value was “+ (activity was measured to be greater than 5.0 μM)” and the Emax is less than 25%. Further, on M2 muscarinic receptor, the “M2 Activity” value was “+ (activity was measured to be greater than 5.0 μM)” and the maximum response (Emax) is less than 25%. On M3 muscarinic receptor, the “M3 Activity” value was “+ (activity was measured to be greater than 5.0 μM)” and the Emax is less than 25%.

Consider `COC(=O)CCCN1CCC2(CC1)C[C@H](NC(C)=O)c1ccccc12` [compound 237], for which, at M4 muscarinic receptor, the “M4 Activity” value is “+ (activity was measured to be greater than 5.0 μM)” and the maximum response (Emax) was 25 to 100%. For the same molecule, at M1 muscarinic receptor, the “M1 Activity” value was “+ (activity was measured to be greater than 5.0 μM)” and the Emax fell in the range of 25 to 100%. At M2 muscarinic receptor, the “M2 Activity” value is given as “+ (activity was measured to be greater than 5.0 μM)” and the Emax was less than 25%. Besides, on M3 muscarinic receptor, the “M3 Activity” value was “+ (activity was measured to be greater than 5.0 μM)” and the Emax is less than 25%.

As for `C/C=C(\C)CN1CCC2(CC1)C[C@H](NC(C)=O)c1ccccc12` [compound 238], on M4 muscarinic receptor, the “M4 Activity” value is reported as “+ (activity was measured to be greater than 5.0 μM)” and the maximal effect (Emax) is less than 25%. Further, on M1 muscarinic receptor, the “M1 Activity” value is on record as “+ (activity was measured to be greater than 5.0 μM)” and the Emax was less than 25%. Further, at M2 muscarinic receptor, the “M2 Activity” value is “+ (activity was measured to be greater than 5.0 μM)” and the Emax is less than 25%. Also, on M3 muscarinic receptor, the “M3 Activity” value was “+ (activity was measured to be greater than 5.0 μM)” and the Emax is less than 25%.

For orientation: Emax means the size of the effect at its maximum, as opposed to the concentration needed.
